Results as given in patent US11504386B2, “Preparation method for various novel fucosyl oligosaccharides and use thereof” (Korea University Research and Business Foundation, priority 2017, dated 2022).

Columns and labels:
[1] = tested on: Salmonella enterica serovar typhimurium; test: Capability of pathogenic microorganism to ferment FGal (Salmonella); format: cell-based; details: medium with 3 g/L purified FGal, 37° C., FIG. 9
Description: (§1) To verify the prebiotic effect of FGal, the cell growth of strains such as Bifidobacterium longum subsp. infantis ATCC 15697 and Bifidobacterium bifidum DSM 20082 was monitored. In addition, to conduct a test for the capabilities of pathogenic microorganisms to ferment FGal, the cell growth of strains such as E. coli O1:K1:H7 and Salmonella enterica serovar typhimurium was monitored. At this time, the medium contained 10 g/L of BactoPeptone, 5 g/L of yeast extract, 2 g/L of K2HPO4 (anhydrous), 5 g/L of Na acetate (anhydrous), 2 g/L of NH4 citrate tribasic, 0.2 g/L of Mg sulfate heptahydrate, 0.05 g/L of Mn sulfate, 1 mL/L of Tween 80 (polysorbate 80), 0.5 g/L of cysteine, and 3 g/L of purified FGal, and the strains were cultured at 37° C.

E. coli O1:K1:H7 = test: Capability of pathogenic microorganism to ferment FGal (E. coli); format: cell-based; details: medium with 3 g/L purified FGal, 37° C., FIG. 9
Description: as §1

hippocampal neurons = hippocampal neurons (brain neural cells) treated with FGal; stated as known; cited from earlier work
[2] = tested on: Bifidobacterium bifidum DSM 20082; test: Prebiotic effect: cell growth and metabolism of FGal by Bifidobacterium bifidum; format: cell-based; details: medium with 3 g/L purified FGal, 37° C., FIG. 8
Description: as §1

[3] = tested on: Bifidobacterium longum subsp. infantis ATCC 15697; test: Prebiotic effect: cell growth and metabolism of FGal by Bifidobacterium longum subsp. infantis; format: cell-based; details: medium with 3 g/L purified FGal, 37° C., FIG. 8
Description: as §1

Structure (SMILES): C[C@@H]1O[C@@H](O[C@H]2C(O)O[C@H](CO)[C@H](O)[C@@H]2O)[C@@H](O)[C@H](O)[C@@H]1O (stereo partly shown) [FGal, 2′-fucosylgalactose]
- metabolism of FGal by pathogenic microorganism [1]: unable to metabolize
- metabolism of FGal by pathogenic microorganism (E. coli O1:K1:H7): unable to metabolize
- growth of nerve cells (hippocampal neurons): promotes the growth of nerve cells
- metabolism (fermentation) of FGal by the strain [2]: first decomposed FGal into fucose and galactose extracellularly, and then metabolized a small amount of galactose
- metabolism (fermentation) of FGal by the strain ([2]; listed as 2-fucosylgalactose): extracellularly decomposes 2-fucosylgalactose into galactose and fucose, and then uses only galactose
- metabolism (fermentation) of FGal by the strain [3]: decomposed FGal into galactose and fucose through intracellular fucosidase and used both
- metabolism (fermentation) of FGal by the strain ([3]; listed as 2-fucosylgalactose): decomposes 2-fucosylgalactose into galactose and fucose through intracellular fucosidase and uses both
